What was measured:
[1] = target: human GluN1/GluN2B NMDA receptors (Homo sapiens (Human), UniProt Q05586+Q13224); experiment: Cell-based calcium flux (FLIPR) assay on cloned human NR1/NR2B ion channels expressed in mammalian cells; conditions: standard assay, glutamate ~EC40, 10 μM glycine
Procedure: (§1) Effects of Test Articles on Cloned Human NR1/NR2B Ion Channels Expressed in Mammalian Cells
(§2) NMDA receptors are ion channels that are highly permeable to Ca^2+ ions, rendering it possible to monitor NMDA receptor function using cell-based calcium flux assay. In this assay, co-agonists glutamate and glycine are added to cells heterologously expressing human GluN1/GluN2B NMDA receptors to initiate cellular Ca^2+ influx. The time course of the changes in intracellular calcium is measured using a fluorescent dye and a FLIPR (Fluorometric Imaging Plate Reader) device.
(§3) Twenty four hours before measurements, the expression of the NMDA receptors in the stable cell line is induced with Tet-On inducible system in the presence of a non-selective NMDA receptor blocker. On the day of the experiment, cell culture media is carefully washed and the cells are loaded with Calcium 5 Dye Kit (Molecular Devices) in dye loading buffer containing 137 mM NaCl, 4 mM KCl, 2 mM CaCl2), 0.5 mM MgCl2(standard assay) or 1.5 mM MgCl2 (HTS assay), 10 mM HEPES and 5 mM D-glucose; pH 7.4. After 1 h incubation at the room temperature, the dye is washed away with the assay buffer (137 mM NaCl (standard assay) or 150 mM (HTS assay), 4 mM KCl (standard assay) or 3 mM (HTS assay), 2 mM CaCl2), 0.01 mM EDTA, 10 mM HEPES and 5 mM D-glucose; pH 7.4) In the FLIPR TETRA reader, various concentrations of the test compounds are added to the cells for 5 min while fluorescence is monitored to detect potential agonist activity. Next, co-agonists, glutamate and glycine are added for another 5 minutes. The concentration of glutamate corresponding to ˜EC40 (standard assay) or EC40 (HTS assay) is used to maximize the assay's signal window and ability to detect NMDA receptor antagonists and negative allosteric modulators. A saturating concentration (10 μM) of glycine is also present in the assay. A non-selective NMDA receptor antagonist, (+)MK-801 is used as a positive control for antagonist activity. The fluorescent signal in the presence of test compounds is quantified and normalized to the signal defined by the appropriate control wells.

[2] = target: human GluN1/GluN2B NMDA receptors (Homo sapiens (Human), UniProt Q13224); experiment: as above; conditions: standard assay, glutamate ~EC40, 10 μM glycine
Sequence of human GluN1/GluN2B NMDA receptors (Homo sapiens (Human), UniProt Q13224) (Q13224 27-1484, other chains not shown): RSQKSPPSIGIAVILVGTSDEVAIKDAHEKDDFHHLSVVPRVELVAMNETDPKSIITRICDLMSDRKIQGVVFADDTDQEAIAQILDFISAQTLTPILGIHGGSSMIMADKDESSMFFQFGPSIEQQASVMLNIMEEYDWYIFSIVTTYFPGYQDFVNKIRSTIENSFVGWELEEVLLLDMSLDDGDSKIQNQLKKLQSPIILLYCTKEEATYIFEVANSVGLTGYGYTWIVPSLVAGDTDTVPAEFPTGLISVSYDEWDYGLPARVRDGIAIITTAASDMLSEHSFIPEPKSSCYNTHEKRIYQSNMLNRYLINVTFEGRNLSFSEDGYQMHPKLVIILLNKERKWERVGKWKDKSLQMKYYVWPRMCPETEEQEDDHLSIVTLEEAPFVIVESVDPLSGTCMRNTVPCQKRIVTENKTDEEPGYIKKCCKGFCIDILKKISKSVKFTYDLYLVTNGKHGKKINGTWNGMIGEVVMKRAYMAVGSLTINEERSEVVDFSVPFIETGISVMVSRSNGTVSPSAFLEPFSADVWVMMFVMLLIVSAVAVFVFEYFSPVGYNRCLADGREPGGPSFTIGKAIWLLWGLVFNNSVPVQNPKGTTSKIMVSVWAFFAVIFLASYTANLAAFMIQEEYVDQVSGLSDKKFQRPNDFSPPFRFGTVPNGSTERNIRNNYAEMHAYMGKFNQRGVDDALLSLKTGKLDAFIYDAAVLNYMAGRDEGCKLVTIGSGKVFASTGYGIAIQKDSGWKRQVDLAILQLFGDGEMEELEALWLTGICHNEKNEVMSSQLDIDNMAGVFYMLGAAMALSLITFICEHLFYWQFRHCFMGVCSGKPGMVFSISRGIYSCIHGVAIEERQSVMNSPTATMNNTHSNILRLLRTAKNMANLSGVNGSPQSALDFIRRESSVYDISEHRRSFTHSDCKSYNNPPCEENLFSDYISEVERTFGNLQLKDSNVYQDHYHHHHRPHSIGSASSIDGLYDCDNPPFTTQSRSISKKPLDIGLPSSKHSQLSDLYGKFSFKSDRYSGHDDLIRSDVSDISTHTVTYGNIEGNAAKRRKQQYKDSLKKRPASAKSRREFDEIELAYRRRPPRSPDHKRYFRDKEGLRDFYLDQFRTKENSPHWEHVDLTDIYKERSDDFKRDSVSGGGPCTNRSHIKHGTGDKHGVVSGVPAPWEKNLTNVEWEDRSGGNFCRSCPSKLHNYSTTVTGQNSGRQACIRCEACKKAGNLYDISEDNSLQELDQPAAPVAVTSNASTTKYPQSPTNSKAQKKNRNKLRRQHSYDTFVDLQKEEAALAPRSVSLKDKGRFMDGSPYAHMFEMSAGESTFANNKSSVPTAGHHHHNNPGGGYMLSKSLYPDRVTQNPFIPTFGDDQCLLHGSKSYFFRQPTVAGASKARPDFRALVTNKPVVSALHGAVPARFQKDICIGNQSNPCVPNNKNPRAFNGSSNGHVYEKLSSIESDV
Procedure: as §1, §2, §3

Sequence of human GluN1/GluN2B NMDA receptors (Homo sapiens (Human), UniProt Q05586+Q13224) (Q13224 27-1484, other chains not shown): as above

Row | SMILES | IC50 [1] [nM] | IC50 [2] [nM]
1 | CCC(=O)Cn1ncc2ncc(-c3ccc(F)c(C(F)F)c3)nc21 [Example 1, 1-[6-[3-(Difluoromethyl)-4-fluoro-phenyl]pyrazolo[3,4-b]pyrazin-1-yl]butan-2-one] | 22 | –
2 | O=C(Cn1ncc2ncc(-c3ccc(Cl)c(OC(F)F)c3)nc21)C1CC1 [Example 2, 2-[6-[4-Chloro-3-(difluoromethoxy)phenyl]pyrazolo[3,4-b]pyrazin-1-yl]-1-cyclopropyl-ethanone] | 81 | –
3 | CN(C)C(=O)Cn1ncc2ncc(-c3ccc(C(F)(F)F)s3)nc21 [Example 3, N,N-Dimethyl-2-[6-[5-(trifluoromethyl)-2-thienyl]pyrazolo[3,4-b]pyrazin-1-yl]acetamide] | 581 | –
4 | Cc1cccc(-c2cnc3cnn(CC(=O)N(C)C)c3n2)c1 [Example 4, N,N-Dimethyl-2-[6-(m-tolyl)pyrazolo[3,4-b]pyrazin-1-yl]acetamide] | 410 | –
5 | CN(C)C(=O)Cn1ncc2ncc(-c3ccc(Cl)c(F)c3)nc21 [Example 5, 2-[6-(4-Chloro-3-fluoro-phenyl)pyrazolo[3,4-b]pyrazin-1-yl]-N,N-dimethyl-acetamide] | 827 | –
6 | Cc1ccc(-c2cnc3cnn(CC(=O)N(C)C)c3n2)cc1F [Example 6, 2-[6-(3-Fluoro-4-methyl-phenyl)pyrazolo[3,4-b]pyrazin-1-yl]-N,N-dimethyl-acetamide] | 916 | –
7 | Cc1cc(-c2cnc3cnn(CC(=O)N(C)C)c3n2)ccc1Cl [Example 7] | – | 117
8 | Cc1cc(-c2cnc3cnn(CC(=O)N(C)C)c3n2)ccc1Cl [Example 8] | – | 134
9 | COc1ccc(-c2cnc3cnn(CC(=O)N(C)C)c3n2)cc1Cl [Example 9, 2-[6-(3-Chloro-4-methoxy-phenyl)pyrazolo[3,4-b]pyrazin-1-yl]-N,N-dimethyl-acetamide] | – | 584
10 | CN(C)C(=O)Cn1ncc2ncc(-c3ccc(F)c(C(C)(F)F)c3)nc21 [Example 13, 2-[6-[3-(1,1-Difluoroethyl)-4-fluoro-phenyl]pyrazolo[3,4-b]pyrazin-1-yl]-N,N-dimethyl-acetamide] | – | 146
11 | CN(C)C(=O)Cn1ncc2ncc(-c3ccc(Cl)c(C(C)(F)F)c3)nc21 [Example 14, 2-[6-[4-Chloro-3-(1,1-difluoroethyl)phenyl]pyrazolo[3,4-b]pyrazin-1-yl]-N,N-dimethyl-acetamide] | – | 149
12 | CN(C)C(=O)Cn1ncc2ncc(-c3ccc(Cl)c(C(F)(F)F)c3)nc21 [Example 15, 2-[6-[4-Chloro-3-(trifluoromethyl)phenyl]pyrazolo[3,4-b]pyrazin-1-yl]-N,N-dimethyl-acetamide] | – | 272
13 | CN(C)C(=O)Cn1ncc2ncc(-c3ccc(OC(F)F)c(F)c3)nc21 [Example 17, 2-[6-[4-(Difluoromethoxy)-3-fluoro-phenyl]pyrazolo[3,4-b]pyrazin-1-yl]-N,N-dimethyl-acetamide] | – | 859
14 | CN(C)C(=O)Cn1ncc2ncc(-c3ccc(OC(F)(F)F)c(Cl)c3)nc21 [Example 19, 2-[6-[3-Chloro-4-(trifluoromethoxy)phenyl]pyrazolo[3,4-b]pyrazin-1-yl]-N,N-dimethyl-acetamide] | – | 1040
15 | Cc1c(F)ccc(-c2cnc3cnn(CC(=O)N(C)C)c3n2)c1F [Example 21, 2-[6-(2,4-Difluoro-3-methyl-phenyl)pyrazolo[3,4-b]pyrazin-1-yl]-N,N-dimethyl-acetamide] | – | 34
16 | CN(C)C(=O)Cn1ncc2ncc(-c3ccc(F)c(F)c3F)nc21 [Example 23, N,N-Dimethyl-2-[6-(2,3,4-trifluorophenyl)pyrazolo[3,4-b]pyrazin-1-yl]acetamide] | – | 962
17 | CC(F)(F)c1cc(-c2cnc3cnn(CC(=O)N4CCC4)c3n2)ccc1Cl [Example 26, 1-(Azetidin-1-yl)-2-[6-[4-chloro-3-(1,1-difluoroethyl)phenyl]pyrazolo[3,4-b]pyrazin-1-yl]ethanone] | – | 140
18 | O=C(Cn1ncc2ncc(-c3ccc(Cl)c(OC(F)F)c3)nc21)N1CCC1 [Example 29, 1-(Azetidin-1-yl)-2-[6-[4-chloro-3-(difluoromethoxy)phenyl]pyrazolo[3,4-b]pyrazin-1-yl]ethanone] | – | 69
19 | CC1CN(C(=O)Cn2nc(F)c3ncc(-c4ccc(F)c(C(F)F)c4)nc32)C1 [Example 31, 2-[6-[3-(Difluoromethyl)-4-fluoro-phenyl]-3-fluoro-pyrazolo[3,4-b]pyrazin-1-yl]-1-(3-methylazetidin-1-yl)ethanone] | – | 196
20 | O=C(Cn1nc(F)c2ncc(-c3ccc(F)c(C(F)F)c3)nc21)N1CC(F)C1 [Example 33, 2-[6-[3-(Difluoromethyl)-4-fluoro-phenyl]-3-fluoro-pyrazolo[3,4-b]pyrazin-1-yl]-1-(3-fluoroazetidin-1-yl)ethanone] | – | 77
21 | CC1CN(C(=O)Cn2ncc3ncc(-c4ccc(Cl)c(C(C)(F)F)c4)nc32)C1 [Example 34, 2-[6-[4-Chloro-3-(1,1-difluoroethyl)phenyl]pyrazolo[3,4-b]pyrazin-1-yl]-1-(3-methylazetidin-1-yl)ethanone] | – | 408
22 | CC(F)(F)c1cc(-c2cnc3cnn(CC(=O)N4CC(F)C4)c3n2)ccc1Cl [Example 35, 2-[6-[4-Chloro-3-(1,1-difluoroethyl)phenyl]pyrazolo[3,4-b]pyrazin-1-yl]-1-(3-fluoroazetidin-1-yl)ethanone] | – | 212

The next lines start with the values.

Row | IC50 [1] [nM] | IC50 [2] [nM] | SMILES
23 | – | 251 | CC1CN(C(=O)Cn2ncc3ncc(-c4ccc(F)c(OC(F)F)c4)nc32)C1 [Example 36, 2-[6-[3-(Difluoromethoxy)-4-fluoro-phenyl]pyrazolo[3,4-b]pyrazin-1-yl]-1-(3-methylazetidin-1-yl)ethanone]
24 | – | 1060 | CC(F)(F)c1cc(-c2cnc3cnn(CC(=O)N4CCOCC4)c3n2)ccc1Cl [Example 38, 2-[6-[4-Chloro-3-(1,1-difluoroethyl)phenyl]pyrazolo[3,4-b]pyrazin-1-yl]-1-morpholino-ethanone]
25 | – | 162 | Cc1nnc(Cn2ncc3ncc(-c4ccc(F)c(C(F)F)c4)nc32)s1 [Example 39, 2-[[6-[3-(Difluoromethyl)-4-fluoro-phenyl]pyrazolo[3,4-b]pyrazin-1-yl]methyl]-5-methyl-1,3,4-thiadiazole]
26 | – | 337 | Cc1cc(Cn2ncc3ncc(-c4ccc(F)c(C(F)F)c4)nc32)on1 [Example 41, 5-[[6-[3-(Difluoromethyl)-4-fluoro-phenyl]pyrazolo[3,4-b]pyrazin-1-yl]methyl]-3-methyl-isoxazole]
27 | – | 79 | Fc1cncc(Cn2ncc3ncc(-c4ccc(F)c(C(F)F)c4)nc32)c1 [Example 42, 6-[3-(Difluoromethyl)-4-fluoro-phenyl]-1-[(5-fluoro-3-pyridyl)methyl]pyrazolo[3,4-b]pyrazine]
28 | – | 250 | Fc1ccc(-c2cnc3cnn(Cc4cncc(Cl)c4)c3n2)cc1C(F)F [Example 43, 1-[(5-Chloro-3-pyridyl)methyl]-6-[3-(difluoromethyl)-4-fluoro-phenyl]pyrazolo[3,4-b]pyrazine]
29 | – | 165 | COc1cncc(Cn2ncc3ncc(-c4ccc(F)c(C(F)F)c4)nc32)c1 [Example 44, 6-[3-(Difluoromethyl)-4-fluoro-phenyl]-1-[(5-methoxy-3-pyridyl)methyl]pyrazolo[3,4-b]pyrazine]
30 | – | 709 | N#Cc1cncc(Cn2nc(F)c3ncc(-c4ccc(F)c(C(F)F)c4)nc32)c1 [Example 46, 5-[[6-[3-(Difluoromethyl)-4-fluoro-phenyl]-3-fluoro-pyrazolo[3,4-b]pyrazin-1-yl]methyl]pyridine-3-carbonitrile]
31 | – | 284 | Fc1ccc(-c2cnc3cnn(Cc4cncc(Cl)c4)c3n2)cc1OC(F)F [Example 47, 1-[(5-Chloro-3-pyridyl)methyl]-6-[3-(difluoromethoxy)-4-fluoro-phenyl]pyrazolo[3,4-b]pyrazine]
32 | – | 2810 | CN(C)C(=O)Cn1ncc2ncc(-c3ccc(Cl)cc3F)nc21 [Example 48, 2-(6-(4-Chloro-2-fluorophenyl)-1H-pyrazolo[3,4-b]pyrazin-1-yl)-N,N-dimethylacetamide]
33 | – | 2740 | CN(C)C(=O)Cn1ncc2ncc(-c3ccc(OC(F)(F)F)cc3)nc21 [Example 49, N,N-Dimethyl-2-(6-(4-(trifluoromethoxy)phenyl)-1H-pyrazolo[3,4-b]pyrazin-1-yl)acetamide]
34 | – | > 3000 | CN(C)C(=O)Cn1ncc2ncc(-c3cc(F)ccc3F)nc21 [Example 50, 2-(6-(2,5-Difluorophenyl)-1H-pyrazolo[3,4-b]pyrazin-1-yl)-N,N-dimethylacetamide]
35 | – | 3770 | COc1cncc(Cn2ncc3ncc(-c4ccc(F)c(OC(F)F)c4)nc32)c1 [Example 52, 6-(3-(Difluoromethoxy)-4-fluorophenyl)-1-((5-methoxypyridin-3-yl)methyl)-1H-pyrazolo[3,4-b]pyrazine]

From US11214563B2 (JANSSEN PHARMACEUTICA NV, priority 2019, dated 2022)
